One may read the ED50 as the dose that gives a 50% effect, or the effect in half of the subjects.

The text below walks through data of patent US4542144A, “Anticonvulsant N-aryl-N'-(2-thiazolidinylidene)ureas” (McNeilab Inc., priority 1983, dated 1985).

This experiment deals with tonic extensor seizure. Kind of experiment: Maximal Electroshock (MES) test, block of tonic extensor seizure, 45' post dose p.o. The experiment is classed as in vivo, mice. Further details: key to MES test results (IA): IA: Inactive. Conditions: for ED50: Mus musculus, po, 0.75 h; for ED50 / MES test results (IA) / % block (MES test) / MES test results (activity in words): mice, 45' post dose; for potency of 3-Me compound relative to 3-H compound (more potent than 3-H): MES ED50, Compd. No. 18 vs No. 17, No. 28 vs No. 27. The text has this: Activity in the MES test, indicating anticonvulsant activity, is characterized by a block of the tonic extensor seizure caused by applying an electric shock to mice via corneal electrodes as described in Swinyard et al., J. Pharmacol. Exp. Ther., 106, 319-330 (1952) and recorded as % block. A more recent description of current practice in anticonvulsant drug screening has also been reported by Swinyard et al., Epilepsia, 19, 409-428 (1978).

The mark [1] stands for this setting: Table II, 200 mg/kg p.o., only dose tested.

On to `Cc1ccc(NC(=O)N=C2SCCN2C)c(C)c1` [compound 20], for which, where the note is “Table II”, the ED50 turned out to be 178 mg/kg. Take `CN1CCSC1=NC(=O)Nc1c(F)cccc1F` [compound 29]: the ED50 (Table II) amounted to 22.7 mg/kg. The same measure, in the same setting: the same measure for `Cc1cccc(Cl)c1NC(=O)N=C1SCCN1C` [compound 26]: 15.3 mg/kg. With `CN1CCSC1=NC(=O)Nc1c(Cl)cc(Cl)cc1Cl` [compound 32], the “MES test results (IA)” value (Table II, 200 mg/kg p.o.) is given as “IA”.

As to `CN1CCSC1=NC(=O)Nc1ccccc1` [compound 1], the “MES test results (IA)” value (Table II, 100 mg/kg p.o., only dose tested) is given as “IA”.

Take `CN1CCSC1=NC(=O)Nc1ccc(Cl)cc1` [compound 7]: the “MES test results (IA)” value (Table II, 200 mg/kg p.o.) is “IA”. Consider `CCc1cccc(C)c1NC(=O)N=C1SCCN1C` [compound 16], for which the ED50 (Table II) is 17.4 mg/kg.

`Cc1ccccc1NC(=O)N=C1SCCN1C` [compound 2] had an ED50 (Table II) of 4.8 mg/kg.

Where the note is “Table II”, `COc1ccccc1NC(=O)N=C1SCCN1C` [compound 8] returned a median effective dose (ED50) of 235 mg/kg. With `CN1CCSC1=NC(=O)Nc1cccc(C(F)(F)F)c1` [compound 12], the “MES test results (IA)” value (Table II, 200 mg/kg p.o.) is “IA”.

Consider `CN1CCSC1=NC(=O)Nc1ccc([N+](=O)[O-])cc1` [compound 14], for which, where the note is “Table II, 200 mg/kg p.o.”, the “MES test results (IA)” value is listed as “IA”. With `COc1cccc(NC(=O)N=C2SCCN2C)c1` [compound 9], the ED50 (Table II) is less than 200 mg/kg. In addition, under setting [1], the “% block (MES test)” value is given as 80% and the “MES test results (activity in words)” value is “Active”.

For `CN1CCSC1=NC(=O)Nc1cc(C(F)(F)F)cc(C(F)(F)F)c1` [compound 24], the “MES test results (IA)” value (Table II, 200 mg/kg p.o.) was “IA”. Same read-out and setting: the same measure for `Cc1ccc(NC(=O)N=C2SCCN2C)cc1` [compound 4]: “IA”. `Cc1cccc(NC(=O)N=C2SCCN2C)c1` [compound 3] came in with a median effective dose (ED50) (Table II) of less than 200 mg/kg. Also, the “% block (MES test)” value under setting [1] turned out to be 70%. Consider `Cc1ccccc1NC(=O)N=C1NCCS1` [Table I No. 2, reference compound], for which, under “Table I”, the ED50 turned out to be 232 mg/kg. For the same molecule, under “Table I, 200 mg/kg p.o.”, the “% block (MES test)” value was 30%. On to `Cc1cc(C)cc(NC(=O)N=C2SCCN2C)c1` [compound 23], for which the “MES test results (IA)” value (Table II, 200 mg/kg p.o.) was “IA”. In the case of `CN1CCSC1=NC(=O)Nc1c(Cl)cccc1Cl` [compound 28], the “potency of 3-Me compound relative to 3-H compound (more potent than 3-H)” value is 4 ×. Moreover, the ED50 (Table II) came out at 17.4 mg/kg. In the same order, the values of `Cc1cccc(C)c1NC(=O)N=C1SCCN1C` [compound 18] are 2.6 × and 11.8 mg/kg. On to `CN1CCSC1=NC(=O)Nc1ccccc1C(F)(F)F` [compound 11], for which the ED50 (Table II) was determined as 92.2 mg/kg. Same read-out and setting: the same measure for `CN1CCSC1=NC(=O)Nc1c(Br)cccc1Br` [compound 30]: 69.6 mg/kg. The molecule `CN1CCSC1=NC(=O)Nc1c(Br)cc(F)cc1Br` [compound 31] gave an ED50 (Table II) of less than 200 mg/kg. Moreover, under setting [1], the “% block (MES test)” value is listed as 80% and the “MES test results (activity in words)” value was “Active”.

Under “Table I”, `O=C(N=C1NCCS1)Nc1ccccc1` [Table I No. 1, reference compound] returned a 50% effective dose (ED50) greater than 200 mg/kg.

In the case of `CN1CCSC1=NC(=O)Nc1ccc(C(F)(F)F)cc1` [compound 13], for the setting “Table II, 200 mg/kg p.o.”, the “MES test results (IA)” value is on record as “IA”. Molecule `O=C(N=C1NCCS1)Nc1c(Cl)cccc1Cl` [compound 27] returned an ED50 (Table II) of 70.7 mg/kg.

In the case of `COc1ccc(NC(=O)N=C2SCCN2C)cc1OC` [compound 34], the ED50 (Table II) was greater than 200 mg/kg. The “% block (MES test)” value under setting [1] is given as 20%.

`Cc1ccc(NC(=O)N=C2SCCN2C)cc1C` [compound 22] showed an ED50 (Table II) greater than 200 mg/kg. Besides, the “% block (MES test)” value (Table II, p.o., dose not given) is 10%.

`CCc1cccc(CC)c1NC(=O)N=C1SCCN1C` [compound 15]: the 50% effect level (Table II) (ED50) was put at a dose of 14.2 mg/kg. On the same count and under the same terms, the same measure for `Cc1cccc(NC(=O)N=C2SCCN2C)c1C` [compound 21]: 37.2 mg/kg. The same measure, in the same setting: the same measure for `Cc1cccc(C)c1NC(=O)N=C1NCCS1` [compound 17]: 31 mg/kg. `Cc1ccc(NC(=O)N=C2NCCS2)cc1C` [No. 22a, N-(3,4-dimethylphenyl)-N'-(2-thiazolidinylidene)urea]: under “Table II, p.o., dose not given”, the “MES test results (IA)” value is given as “IA”.

Under “Table II”, `CN1CCSC1=NC(=O)Nc1ccccc1Cl` [compound 5] returned an ED50 of less than 200 mg/kg. Besides, under setting [1], the “% block (MES test)” value turned out to be 70% and the “MES test results (activity in words)” value is “Active”.

`Cc1cc(C)c(NC(=O)N=C2SCCN2C)c(C)c1` [compound 25] displayed an ED50 (Table II) of 66.5 mg/kg. Turning to `COc1ccc(NC(=O)N=C2SCCN2C)cc1` [compound 10], the “MES test results (IA)” value (Table II, 200 mg/kg p.o.) is recorded as “IA”. In turn, `Cc1ccc(C)c(NC(=O)N=C2SCCN2C)c1` [compound 19] returned an ED50 (Table II) of 66.1 mg/kg.

As for `COc1cccc(OC)c1NC(=O)N=C1SCCN1C` [compound 33], the ED50 (Table II) is 41.2 mg/kg. Regarding `CN1CCSC1=NC(=O)Nc1cccc(Cl)c1` [compound 6], the “MES test results (IA)” value (Table II, 200 mg/kg p.o.) is listed as “IA”.
